In brackets after ≈: the same amount, converted by molar mass.
What was measured:
Haemophilus influenzae [1] = test: In vitro antibacterial activity against Haemophilia influenzae strains 30063 and ATCC 31517 (HI); range is 32->64; assay type: functional
Moraxella catarrhalis [2] = test: In vitro antibacterial activity against Moraxella catarrhalis strains 30607 and 30603 (MC); range is 16-32; assay type: functional
Staphylococcus aureus [3] = test: In vitro antibacterial activity against Staphylococcus aureus strains UC12673, UC9213, ATCC 29213, and UC9271 (SA); range is 16-32; assay type: functional
[4] = system: Staphylococcus epidermidis; test: In vitro antibacterial activity against Staphylococcus epidermidis strains UC12084, 30031, and CDC-CNS90 (SE); range is 4-8; assay type: functional
Staphylococcus aureus [5] = test: In vitro antibacterial activity against linezolid-resistant Staphylococcus aureus ATCC 29213 (LRSA).; assay type: functional
Enterococcus faecium = test: In vitro antibacterial activity against vancomycin-resistant Enterococcus faecium UC12712 (VRE).
Streptococcus pneumoniae [6] = test: In vitro antibacterial activity against Streptococcus pneumoniae strains ATCC 6305 and 31573 (SPN); range is 4-8
Haemophilus influenzae [7] = test: In vitro antibacterial activity against Haemophilia influenzae strains ATCC 30063 and ATCC 31517; assay type: functional
Moraxella catarrhalis [8] = test: In vitro antibacterial activity against Moraxella catarrhalis strains 30607 and 30603 (MC).; assay type: functional
Staphylococcus aureus [9] = test: In vitro antibacterial activity against Staphylococcus aureus strains UC12673, UC9213, ATCC 29213, and UC9271 (SA); assay type: functional
[10] = system: Staphylococcus epidermidis; test: In vitro antibacterial activity against Staphylococcus epidermidis strains UC12084, 30031, and CDC-CNS90 (SE); assay type: functional
Streptococcus pneumoniae [11] = test: In vitro antibacterial activity against Streptococcus pneumoniae strains ATCC6305 and 31573 (SPN).
Staphylococcus aureus [12] = test: In vitro antibacterial activity against Staphylococcus aureus strains UC12673, UC9213, ATCC 29213, and UC9271 (SA); range is 2-4; assay type: functional
Moraxella catarrhalis [13] = test: In vitro antibacterial activity against Moraxella catarrhalis strains 30607 and 30603 (MC); range is 8-16; assay type: functional
[14] = system: Staphylococcus epidermidis; test: In vitro antibacterial activity against Staphylococcus epidermidis strains UC12084, 30031, and CDC-CNS90 (SE); range is 1-2; assay type: functional
Staphylococcus aureus [15] = test: In vitro antibacterial activity against Staphylococcus aureus strains UC12673, UC9213, ATCC 29213, and UC9271 (SA); range is 2-8; assay type: functional
Streptococcus pneumoniae [16] = test: In vitro antibacterial activity against Streptococcus pneumoniae strains ATCC 6305 and 31573 (SPN).; assay type: functional
Moraxella catarrhalis [17] = test: In vitro antibacterial activity against Moraxella catarrhalis strains 30607 and 30603 (MC); range is 32->64; assay type: functional
[18] = system: Staphylococcus epidermidis; test: In vitro antibacterial activity against Staphylococcus epidermidis strains UC12084, 30031, and CDC-CNS90 (SE); range is 32-64; assay type: functional
Haemophilus influenzae [19] = test: In vitro antibacterial activity against Haemophilia influenzae strains 30063 and ATCC 31517 (HI); range is 4-16; assay type: functional
Staphylococcus aureus [20] = test: In vitro antibacterial activity against Staphylococcus aureus strains UC12673, UC9213, ATCC 29213, and UC9271 (SA); range is 4-16; assay type: functional
[21] = system: Staphylococcus epidermidis; test: In vitro antibacterial activity against Staphylococcus epidermidis strains UC12084, 30031, and CDC-CNS90 (SE); range is 0.5-1; assay type: functional
Haemophilus influenzae [22] = test: In vitro antibacterial activity against Haemophilia influenzae strains 30063 and ATCC 31517 (HI); range is 32-64; assay type: functional
Staphylococcus aureus [23] = test: In vitro antibacterial activity against Staphylococcus aureus strains UC12673, UC9213, ATCC 29213, and UC9271 (SA); range is 4-8; assay type: functional

Row | SMILES | MIC (Staphylococcus aureus [5]) | MIC (Enterococcus faecium) | MIC (Haemophilus influenzae [7]) | MIC (Moraxella catarrhalis [8]) | MIC (Staphylococcus aureus [9]) | MIC [10] | also measured
1 | COCC(=O)NC[C@H]1CN(c2ccc(N3CC[S+]([O-])CC3)c(F)c2)C(=O)O1 | > 64 µg/mL | 16 µg/mL (≈ 40.1 µM) | – | – | – | – | MIC (Haemophilus influenzae [1]): 32 µg/mL (≈ 80.1 µM); MIC (Moraxella catarrhalis [2]): 16 µg/mL (≈ 40.1 µM); MIC (Staphylococcus aureus [3]): 16 µg/mL (≈ 40.1 µM); MIC [4]: 4 µg/mL (≈ 10 µM); MIC (Streptococcus pneumoniae [6]): 4 µg/mL (≈ 10 µM)
2 | O=C1O[C@@H](CNC(=O)C(F)(F)F)CN1c1ccc(N2CC[S+]([O-])CC2)c(F)c1 | > 64 µg/mL | > 64 µg/mL | > 64 µg/mL | > 64 µg/mL | > 64 µg/mL | > 64 µg/mL | MIC (Streptococcus pneumoniae [11]): > 64 µg/mL
3 | O=C(/C=C/c1ccc(Cl)cc1)NC[C@H]1CN(c2ccc(N3CC[S+]([O-])CC3)c(F)c2)C(=O)O1 | 8 µg/mL (≈ 16.3 µM) | 2 µg/mL (≈ 4.07 µM) | – | 8 µg/mL (≈ 16.3 µM) | – | 1 µg/mL (≈ 2.03 µM) | MIC (Haemophilus influenzae [1]): 32 µg/mL (≈ 65 µM); MIC (Staphylococcus aureus [12]): 2 µg/mL (≈ 4.07 µM)
4 | COc1ccc(/C=C/C(=O)NC[C@H]2CN(c3ccc(N4CC[S+]([O-])CC4)c(F)c3)C(=O)O2)cc1 | > 64 µg/mL | 4 µg/mL (≈ 8.2 µM) | > 64 µg/mL | > 64 µg/mL | 4 µg/mL (≈ 8.2 µM) | 2 µg/mL (≈ 4.1 µM) | –
5 | CC(=O)Oc1ccc(/C=C/C(=O)NC[C@H]2CN(c3ccc(C4CC[S+]([O-])CC4)c(F)c3)C(=O)O2)cc1 (stereo not given in full) | – | – | 32 µg/mL (≈ 62.2 µM) | – | – | – | MIC (Moraxella catarrhalis [13]): 8 µg/mL (≈ 15.5 µM); MIC [14]: 1 µg/mL (≈ 1.94 µM); MIC (Staphylococcus aureus [15]): 2 µg/mL (≈ 3.89 µM); MIC (Streptococcus pneumoniae [16]): 8 µg/mL (≈ 15.5 µM)
6 | O=C1O[C@@H](CNC(=O)C(F)(F)F)CN1c1ccc(N2CCS(=O)(=O)CC2)c(F)c1 | 16 µg/mL (≈ 36.4 µM) | 16 µg/mL (≈ 36.4 µM) | ≥ 64 µg/mL | – | – | 8 µg/mL (≈ 18.2 µM) | MIC (Moraxella catarrhalis [17]): 32 µg/mL (≈ 72.8 µM); MIC (Staphylococcus aureus [3]): 16 µg/mL (≈ 36.4 µM)
7 | O=C(NC[C@H]1CN(c2ccc(C3CCS(=O)(=O)CC3)c(F)c2)C(=O)O1)c1ccc(Cl)c(Cl)c1 | – | – | > 64 µg/mL | > 64 µg/mL | > 64 µg/mL | 2 µg/mL (≈ 3.88 µM) | MIC (Streptococcus pneumoniae [16]): > 64 µg/mL
8 | COc1ccc(OC)c(C(=O)NC[C@H]2CN(c3ccc(N4CC[S+]([O-])CC4)c(F)c3)C(=O)O2)c1 | > 64 µg/mL | > 64 µg/mL | > 64 µg/mL | > 64 µg/mL | ≥ 64 µg/mL | – | MIC [18]: 32 µg/mL (≈ 65.1 µM)
9 | O=C(NC[C@H]1CN(c2ccc(C3CCS(=O)(=O)CC3)c(F)c2)C(=O)O1)C(F)F | 32 µg/mL (≈ 76.1 µM) | 4 µg/mL (≈ 9.51 µM) | – | 8 µg/mL (≈ 19 µM) | – | – | MIC (Haemophilus influenzae [19]): > 4 µg/mL; MIC [14]: 1 µg/mL (≈ 2.38 µM); MIC (Staphylococcus aureus [20]): 4 µg/mL (≈ 9.51 µM); MIC (Streptococcus pneumoniae [11]): 1 µg/mL (≈ 2.38 µM)
10 | O=C(CF)NC[C@H]1CN(c2ccc(C3CCS(=O)(=O)CC3)c(F)c2)C(=O)O1 | 64 µg/mL (≈ 159 µM) | 2 µg/mL (≈ 4.97 µM) | – | > 8 µg/mL | 2 µg/mL (≈ 4.97 µM) | – | MIC (Haemophilus influenzae [19]): > 4 µg/mL; MIC [21]: 0.5 µg/mL (≈ 1.24 µM); MIC (Streptococcus pneumoniae [11]): 0.5 µg/mL (≈ 1.24 µM)
11 | O=C(/C=C/c1ccc(O)cc1)NC[C@H]1CN(c2ccc(C3CC[S+]([O-])CC3)c(F)c2)C(=O)O1 (stereo not given in full) | > 64 µg/mL | 4 µg/mL (≈ 8.46 µM) | > 64 µg/mL | – | – | – | MIC (Moraxella catarrhalis [13]): 8 µg/mL (≈ 16.9 µM); MIC [14]: 1 µg/mL (≈ 2.12 µM); MIC (Staphylococcus aureus [15]): 2 µg/mL (≈ 4.23 µM)
12 | O=C(/C=C/c1ccc(F)cc1)NC[C@H]1CN(c2ccc(N3CC[S+]([O-])CC3)c(F)c2)C(=O)O1 | 32 µg/mL (≈ 67.3 µM) | 4 µg/mL (≈ 8.41 µM) | – | – | – | 2 µg/mL (≈ 4.21 µM) | MIC (Haemophilus influenzae [22]): 32 µg/mL (≈ 67.3 µM); MIC (Moraxella catarrhalis [2]): 16 µg/mL (≈ 33.6 µM); MIC (Staphylococcus aureus [23]): 4 µg/mL (≈ 8.41 µM)
13 | O=C(NC[C@H]1CN(c2ccc(N3CC[S+]([O-])CC3)c(F)c2)C(=O)O1)c1csnn1 | > 64 µg/mL | 16 µg/mL (≈ 36.4 µM) | 64 µg/mL (≈ 146 µM) | – | – | 8 µg/mL (≈ 18.2 µM) | MIC (Moraxella catarrhalis [17]): 32 µg/mL (≈ 72.8 µM); MIC (Staphylococcus aureus [3]): 16 µg/mL (≈ 36.4 µM)
